Molecules are shown by their SMILES. ≈ marks a conversion by molar mass, not a printed value.

In data set [1] the test system is Staphylococcus aureus 209P. Kind of data set: In vitro antibacterial activity (Test 2). The format is cell-based. The note with it: Nutrient Agar Eiken, read-out: Minimum Growth Inhibitory Concentration (MIC). Here is the method: (§1) Antibacterial activity was measured by the agar plate dilution method, whereby the minimum growth inhibitory concentration (MIC: μg/ml) against various pathogenic bacteria was determined. The test results on the antibacterial activity of the compounds of the invention of Examples 3 and 7 against Staphylococcus aureus 209P, Escherichia coli NIHJ and Pseudomonas aeruginosa No. 7 are shown in Table 2.
(§2) The antibacterial activities of the compounds of the invention of Examples 3 and 7 and meropenem against Staphylococcus aureus 209P, Escherichia coli NIHJ and Pseudomonas aeruginosa 3719 (strain resistant to meropenem) are shown in Table 3.
(§3) The medium used for the measurement was Nutrient Agar Eiken (Eiken Chemicals Co., Ltd.).

The test system of data set [2] is Pseudomonas aeruginosa 3719 (strain resistant to meropenem). Briefly: In vitro antibacterial activity (Test 2). As to conditions: Pseudomonas aeruginosa 3719 (resistant to meropenem); Nutrient Agar Eiken; read-out: Minimum Growth Inhibitory Concentration (MIC). Format: cell-based. The method, then: as §1, §2, §3
Data set [3] deals with Escherichia coli NIHJ. Kind of data set: In vitro antibacterial activity (Test 2). As to conditions: Nutrient Agar Eiken, read-out: Minimum Growth Inhibitory Concentration (MIC). The format is cell-based. The method, then: as §1, §2, §3
The subject of data set [4] is Pseudomonas aeruginosa 1008. Briefly: In vivo antibacterial activity, treatment of infected mice (Test 3). As to conditions: Pseudomonas aeruginosa, 1008, sc, 120 h, intraperitoneal infection, subcutaneous twice (immediately and 4 h after inoculation), survival at five days, expressed as single dose, read-out: Treatment against infections, 50% effective dose (ED50). Further details: species or system mice (SPF, DDY, male). The method, then:
The culture of the bacterial strain to be tested was inoculated intraperitoneally to groups of mice (SPF, DDY, male), each group consisting of 7 animals. A solution of the test compound was subcutaneously administered twice in total to the mice, once immediately and once four hours after the inoculation. From the survival ratio five days after infection, the 50% effective dose (ED50 : mg/kg) was determined by the Probit method and the single dose of test compound was indicated. The test results of the compound of Example 3, compound A and Meropenem against Pseudomonas aeruginosa 1008 are shown in Table 4. Incidentally, Compound A is as described above.

Data set [5] is described as follows: Nephrotoxicity. Format: in vivo. As to conditions: rabbits, intravenous, 200 mg/kg. The method, then: When the compounds of the present invention were administered to rabbits, the incorporation in to the renal cortex is relatively low.
For data set [6], the system named is Pseudomonas aeruginosa. Kind of data set: Antibacterial activity against Pseudomonas aeruginosa compared with aminomethyl compounds A and B. The format is cell-based. The method, then:
Antibacterial activity was measured by the agar plate dilution method, whereby the minimum growth inhibitory concentration (MIC: μg/ml) against various pathogenic bacteria was determined. The test results on the antibacterial activity of the compounds of the invention of Examples 3 and 7 against Staphylococcus aureus […], Escherichia coli NIHJ and Pseudomonas aeruginosa No. 7 are shown in Table 2. Incidentally, Compounds A and B used for comparison are compounds of Example 3 in Japanese Patent Application Kokai No. Hei 5-310740 [compounds represented by the formula (I) of the present invention, wherein R^1, R^2 and R^3 represent hydrogen atoms]. Compound A has the R configuration at the binding position of the aminomethyl group. Compound B has the S configuration at the binding position of the aminomethyl group. The culture of the bacterial strain to be tested was inoculated intraperitoneally to groups of mice (SPF, DDY, male), each group consisting of 7 animals. A solution of the test compound was subcutaneously administered twice in total to the mice, once immediately and once four hours after the inoculation. From the survival ratio five days after infection, the 50% effective dose (ED50 : mg/kg) was determined by the Probit method and the single dose of test compound was indicated.

Data set [7] in a line: Pharmacokinetics such as half-life in blood. The note with it: in vivo.
The subject of data set [8] is Staphylococcus aureus 209P. Kind of data set: In vitro antibacterial activity by agar plate dilution method (Test 1). The format is cell-based. The note with it: Mueller-Hinton II agar, read-out: Minimum Growth Inhibitory Concentration (MIC). Here is the method:
(§4) Antibacterial activity was measured by the agar plate dilution method, whereby the minimum growth inhibitory concentration (MIC: μg/ml) against various pathogenic bacteria was determined. The test results on the antibacterial activity of the compounds of the invention of Examples 3 and 7 against Staphylococcus aureus […], Escherichia coli NIHJ and Pseudomonas aeruginosa No. 7 are shown in Table 2. Incidentally, Compounds A and B used for comparison are compounds of Example 3 in Japanese Patent Application Kokai No. Hei 5-310740 [compounds represented by the formula (I) of the present invention, wherein R^1, R^2 and R^3 represent hydrogen atoms]. Compound A has the R configuration at the binding position of the aminomethyl group. Compound B has the S configuration at the binding position of the aminomethyl group. The medium used for the measurement was Mueller-Hinton II agar (MHA, Becton Dikinson Microbiology Systems).

Data set [9] relates to Pseudomonas aeruginosa No. 7. Described as above. Format: cell-based. As to conditions: Mueller-Hinton II agar, read-out: Minimum Growth Inhibitory Concentration (MIC). The method, then:
as §4

Data set [10] concerns Escherichia coli NIHJ. The description is as above. The format is cell-based. As to conditions: Mueller-Hinton II agar, read-out: Minimum Growth Inhibitory Concentration (MIC). Here is the method: as §4

Broadly, the ED50 is the midpoint of the dose-response relation. Turning to `C[C@@H](O)[C@H]1C(=O)N2C(C(=O)O)=C(S[C@@H]3CN[C@H](C(=O)N(C)C)C3)[C@H](C)[C@H]12` [Meropenem, meropenem, reference compound], the MIC in data set [1] is 0.02 µg/mL (≈ 0.0522 µM); in [2] it was 6.2 µg/mL (≈ 16.2 µM); in [3], at most 0.01 µg/mL. The ED50 in data set [4] came out at 0.72 mg/kg.
With `CNC[C@H]1CCN(C(=O)[C@@H]2C[C@H](SC3=C(C(=O)O)N4C(=O)[C@H]([C@@H](C)O)[C@H]4[C@H]3C)CN2)C1` [Example 3, (1R,5S,6S)-6-[(1R)-1-Hydroxyethyl]-1-methyl-2-[(2S,4S)-2-[(3R)-3-methylaminomethylpyrrolidin-1-ylcarbonyl]pyrrolidin-4-ylthio]-1-carbapen-2-em-3-carboxylic acid], in data set [5], the nephrotoxicity entry is recorded as “did not exhibit nephrotoxicity”. The MIC was at most 0.01 µg/mL in data set [1]; 0.2 µg/mL (≈ 0.442 µM) in [2]; at most 0.01 µg/mL in [3]; 0.02 µg/mL (≈ 0.0442 µM) in data set [8]; 0.05 µg/mL (≈ 0.11 µM) in data set [9]; 0.02 µg/mL (≈ 0.0442 µM) in data set [10]. The “activity against Pseudomonas aeruginosa” value in data set [6] is listed as “superior activity against Pseudomonas aeruginosa”. Further, the 50% effective dose (ED50) in [4] was 0.22 mg/kg. In addition, the “pharmacokinetic properties such as half-life in blood” value in data set [7] is listed as “excellent pharmacokinetic properties such as half-life in blood”.
Take `C[C@@H](O)[C@H]1C(=O)N2C(C(=O)O)=C(S[C@@H]3CN[C@H](C(=O)N4CC[C@H](CNC(=N)N)C4)C3)[C@H](C)[C@H]12` [Example 7, (1R,5S,6S)-2-[(2S,4S)-2-[(3R)-3-Guanidinomethylpyrrolidin-1-ylcarbonyl]pyrrolidin-4-ylthio]-6-[(1R)-1-hydroxyethyl]-1-methyl-1-carbapen-2-em-3-carboxylic acid]: the MIC in [1] was at most 0.01 µg/mL; in data set [2], 0.1 µg/mL (≈ 0.208 µM); in [3], at most 0.01 µg/mL; in data set [8], 0.02 µg/mL (≈ 0.0416 µM); in data set [9], 0.05 µg/mL (≈ 0.104 µM); in data set [10], 0.02 µg/mL (≈ 0.0416 µM).

The values above are taken from patent US5977097A, “1-methylcarbapenem derivatives” (Sankyo Company Limited, priority 1996, dated 1999).
